Like-named read-outs stand apart in the source and are kept apart here.
What was measured:
[1] = test system: Lactobacillus plantarum PN2014; conditions: shake flask; for PN2014, % Growth inhibition: semi-synthetic LAB medium pH7; for PN2014 (control plasmid) μ: semi-synthetic LAB medium pH7, 30° C
[2] = test system: Lactobacillus plantarum PN2001; conditions: shake flask; for PN2001, % Growth inhibition: semi-synthetic LAB medium pH7; for PN2001 (cfa1 plasmid) μ: semi-synthetic LAB medium pH7, 30° C
[3] = test system: butanol non-producing bacterial cells; experiment: Feeding with fatty acids followed by screening for butanol tolerance; format: cell-based; conditions: fed to cells; among about ten different fatty acids tested
From the text: The discovery came from results of studies on feeding butanol non-producing bacterial cells with different fatty acids followed by screening for butanol tolerance.

L. plantarum PN2014 = experiment: Bioscreen-C growth analysis in MRS medium, PN2014 (control); format: cell-based, Lactobacillus plantarum; conditions: strain PN2014 (no gene on plasmid)
Procedure: (§1) For Bioscreen-C (instrument purchased from Growth Curves USA, Piscataway N.J.) growth curves, the cultures were grown overnight in MRS medium containing 1 μg/ml erythromycin at 30° C. The next day, these were diluted to OD600 of 0.1 in the wells of the Bioscreen plate with MRS medium containing 1 μg/ml erythromycin and either 2.25% (w/v) isobutanol or no isobutanol at 30° C.
(§2) L. plantarum strains PN2001, PN2003, PN2005, PN2010, PN2012, and PN2014 were tested for growth in a Bioscreen-C growth curve machine in the presence of isobutanol as described in General Methods. These growth assays were conducted in MRS medium, which contains 1 g/L polysorbate 80 (commercially also known as Tween® 80) that serves as a source of oleic acid. Erythromycin at 1 μg/ml was added to the medium to maintain the plasmids. It is well known that L. plantarum grown in MRS medium incorporates oleic acid into membrane lipids (Johnsson et al. (1995) Appl. Environ. Microbiol. 61:4497-4499).

E. coli strain DPD4655 = experiment: Bioscreen-C growth in LB medium, DPD4655 (cfa overexpression); format: cell-based; conditions: 3 hour and 15 minute time point; for OD600 (+/− st dev): LB medium, 37° C
Procedure: (§3) E. coli strains DPD4655 and DPD4658 were grown overnight in LB medium containing 100 μg/ml ampicillin at 37° C. The next day, these were diluted to OD600 of 0.1 in the wells of a Bioscreen-C plate (instrument and plates purchased from Growth Curves USA, Piscataway N.J.) with LB medium and either 0.4%, 0.8% (w/v) isobutanol or no isobutanol at 37° C. in triplicate. OD was monitored and the OD at the 3 hour and 15 minute time point was used to calculate the % of growth in the presence of isobutanol as compared with its absence, given in Table 15.

L. plantarum PN2012 = experiment: Bioscreen-C growth analysis in MRS medium, PN2012 (control); format: cell-based, Lactobacillus plantarum; conditions: strain PN2012 (no gene on plasmid)
Procedure: as §1, §2

L. plantarum PN2003 = experiment: Bioscreen-C growth analysis in MRS medium, PN2003 (cfa1); format: cell-based, Lactobacillus plantarum; conditions: strain PN2003 (cfa1), 2.25% isobutanol
Procedure: as §1, §2

E. coli strain DPD4658 = experiment: Bioscreen-C growth in LB medium, DPD4658 (control lacZ overexpression); format: cell-based; conditions: 3 hour and 15 minute time point; for OD600 (+/− st dev): LB medium, 37° C
Procedure: as §3

[4] = test system: Lactobacillus plantarum PN1310; experiment: Change in OD600 in S36 medium, PN1310 (spoT mutant, vector); format: cell-based; conditions: 3% isobutanol
From the text: (§4) The purpose of this Example was to test the effect of a combination of cfa1 overexpression and spoT mutation on the isobutanol tolerance of Lactobacillus plantarum. To create a strain with both gene modifications, pFP996-atpB-cfa1 (described in Example 1; also called pFP996-1)) was transformed into the MS0280 strain (described in Example 4; also called PN1300) creating strain PN1312. For a control strain, pFP996 (described in Example 1) was transformed into MS0280 creating PN1310. Strain PN1312, which contained a multicopy expression plasmid with cfa1, was compared to strain PN1310, which contained the vector control.
(§5) The growth of the strains over time was followed, and tolerance compared as follows. The strains were cultured in S36 medium (contains 10 mM ammonium sulfate, 5 mM potassium phosphate buffer, pH 6.0, 50 mM MES, pH 6.0, 2 mM MgCl2, 0.7 mM CaCl2, 50 μM MnCl2, 1 μM FeCl3, 1 μM ZnCl2, 1.72 μM CuCl2, 2.53 μM CoCl2, 2.42 μM Na2MoO4, 2 μM thiamine hydrochloride, 0.01 M glucose, 0.2% yeast extract and 0.01% casamino acids) overnight at 30° C. under anaerobic conditions. The next day, cultures were started from the overnight cultures in fresh medium, with initial OD600 values of 0.18. These cultures were incubated at 30° C. under anaerobic conditions for 4 hours. During this time, PN1310 reached an OD600 of 0.83, and PN1312 reach an OD600 of 0.61. […]

[5] = test system: Lactobacillus plantarum PN2001; experiment: microbe, parasite or virus in culture; conditions: Lactiplantibacillus plantarum, PN2001, pH 7, read-out: PN2001, % Growth inhibition
L. plantarum PN2010 = experiment: Bioscreen-C growth analysis in MRS medium, PN2010 (cfa2); format: cell-based, Lactobacillus plantarum; conditions: strain PN2010 (cfa2)
Procedure: as §1, §2

L. plantarum PN2005 = experiment: Bioscreen-C growth analysis in MRS medium, PN2005 (cfa2); format: cell-based, Lactobacillus plantarum; conditions: strain PN2005 (cfa2)
Procedure: as §1, §2

[6] = test system: Lactobacillus plantarum PN1312; experiment: Change in OD600 in S36 medium, PN1312 (spoT mutant, cfa1); format: cell-based; conditions: 3% isobutanol
From the text: as §4, §5

L. plantarum PN2001 = experiment: Bioscreen-C growth analysis in MRS medium, PN2001 (cfa1); format: cell-based, Lactobacillus plantarum; conditions: strain PN2001 (cfa1)
Procedure: as §1, §2

[7] = test system: Lactobacillus plantarum PN2014; experiment: microbe, parasite or virus in culture; conditions: Lactiplantibacillus plantarum, PN2014, pH 7, read-out: PN2014, % Growth inhibition
[8] = MRS medium (source of oleic acid), 30° C

SMILES: CCC(C)O (stereo not shown) [2-butanol]
- PN2014, % Growth inhibition ([1]; 2-butanol 3.5% w/v): 48%
- PN2014 (control plasmid) μ ([1]; 2-butanol 3.5% w/v): 0.153 h⁻¹
- PN2014, % Growth inhibition ([1]; 2-butanol 4.0% w/v): 59%
- PN2014 (control plasmid) μ ([1]; 2-butanol 4.0% w/v): 0.123 h⁻¹
- PN2014, % Growth inhibition ([1]; 2-butanol 4.25% w/v): 47%
- PN2014 (control plasmid) μ ([1]; 2-butanol 4.25% w/v): 0.158 h⁻¹
- PN2014, % Growth inhibition ([1]; 2-butanol 4.5% w/v): 79%
- PN2014 (control plasmid) μ ([1]; 2-butanol 4.5% w/v): 0.061 h⁻¹
- PN2014, % Growth inhibition ([1]; 2-butanol 4.75% w/v): 89%
- PN2014 (control plasmid) μ ([1]; 2-butanol 4.75% w/v): 0.034 h⁻¹
- PN2014, % Growth inhibition ([1]; 2-butanol 5.0% w/v): 100%
- PN2014 (control plasmid) μ ([1]; 2-butanol 5.0% w/v): 0.00 h⁻¹
- PN2001, % Growth inhibition ([2]; 2-butanol 3.5% w/v): 54%
- PN2001 (cfa1 plasmid) μ ([2]; 2-butanol 3.5% w/v): 0.132 h⁻¹
- PN2001, % Growth inhibition ([2]; 2-butanol 4.0% w/v): 56%
- PN2001 (cfa1 plasmid) μ ([2]; 2-butanol 4.0% w/v): 0.125 h⁻¹
- PN2001, % Growth inhibition ([2]; 2-butanol 4.25% w/v): 61%
- PN2001 (cfa1 plasmid) μ ([2]; 2-butanol 4.25% w/v): 0.111 h⁻¹
- PN2001, % Growth inhibition ([2]; 2-butanol 4.5% w/v): 62%
- PN2001 (cfa1 plasmid) μ ([2]; 2-butanol 4.5% w/v): 0.108 h⁻¹
- PN2001, % Growth inhibition ([2]; 2-butanol 4.75% w/v): 76%
- PN2001 (cfa1 plasmid) μ ([2]; 2-butanol 4.75% w/v): 0.068 h⁻¹
- PN2001, % Growth inhibition ([2]; 2-butanol 5.0% w/v): 73%
- PN2001 (cfa1 plasmid) μ ([2]; 2-butanol 5.0% w/v): 0.078 h⁻¹

SMILES: CCCCCCCC[C@@H]1C[C@@H]1CCCCCCCC(=O)O [dihydrosterculic acid]
- effect of feeding on butanol tolerance [3]: increased butanol tolerance

SMILES: CC(C)CO [isobutanol]
- % Growth inhibition (L. plantarum PN2014; 2.25% isobutanol, MRS medium): 42%
- μ (2.25% isobutanol) (L. plantarum PN2014; [8]): 0.22 h⁻¹
- % OD +isobutanol/−isobutanol (E. coli strain DPD4655; isobutanol 0.4% (w/v)): 72%
- OD600 (+/− st dev) (E. coli strain DPD4655; isobutanol 0.4% (w/v)): 0.318 +/− 0.005
- % OD +isobutanol/−isobutanol (E. coli strain DPD4655; isobutanol 0.8% (w/v)): 50%
- OD600 (+/− st dev) (E. coli strain DPD4655; isobutanol 0.8% (w/v)): 0.220 +/− 0.006
- % Growth inhibition (L. plantarum PN2012; 2.25% isobutanol, MRS medium): 51%
- μ (2.25% isobutanol) (L. plantarum PN2012; [8]): 0.20 h⁻¹
- % Growth inhibition (L. plantarum PN2003): 34%
- % OD +isobutanol/−isobutanol (E. coli strain DPD4658; isobutanol 0.4% (w/v)): 63%
- OD600 (+/− st dev) (E. coli strain DPD4658; isobutanol 0.4% (w/v)): 0.259 +/− 0.004
- % OD +isobutanol/−isobutanol (E. coli strain DPD4658; isobutanol 0.8% (w/v)): 42%
- OD600 (+/− st dev) (E. coli strain DPD4658; isobutanol 0.8% (w/v)): 0.174 +/− 0.011
- inhibited for growth ([4]; PN1310 (vector alone)): 75%
- 2 h Δ OD ([4]; PN1310 (vector), S36 medium, 30° C, anaerobic): 0.3
- inhibition at 2.25 % strength [5]: 46%
- inhibition at 2.5 % strength [5]: 66%
- inhibition at 2.75 % strength [5]: 70%
- inhibition at 3 % strength [5]: 92%
- inhibition at 3.2 % strength [5]: 100%
- % Growth inhibition (L. plantarum PN2010; 2.25% isobutanol, MRS medium): 39%
- μ (2.25% isobutanol) (L. plantarum PN2010; [8]): 0.33 h⁻¹
- growth in the presence of isobutanol (FIG. 1B) ([1]; PN2014, 3% isobutanol): did not grow
- PN2014 (control plasmid) μ ([1]; isobutanol 2.25% w/v): 0.170 h⁻¹
- PN2014 (control plasmid) μ ([1]; isobutanol 2.5% w/v): 0.118 h⁻¹
- PN2014 (control plasmid) μ ([1]; isobutanol 2.75% w/v): 0.037 h⁻¹
- PN2014 (control plasmid) μ ([1]; isobutanol 3.0% w/v): 0.00 h⁻¹
- PN2014 (control plasmid) μ ([1]; isobutanol 3.2% w/v): 0.00 h⁻¹
- % Growth inhibition (L. plantarum PN2005; 2.25% isobutanol, MRS medium): 39%
- μ (2.25% isobutanol) (L. plantarum PN2005; [8]): 0.31 h⁻¹
- growth in the presence of isobutanol (FIG. 1A) ([2]; PN2001, 3% isobutanol): grew
- PN2001 (cfa1 plasmid) μ ([2]; isobutanol 2.25% w/v): 0.187 h⁻¹
- PN2001 (cfa1 plasmid) μ ([2]; isobutanol 2.5% w/v): 0.119 h⁻¹
- PN2001 (cfa1 plasmid) μ ([2]; isobutanol 2.75% w/v): 0.104 h⁻¹
- PN2001 (cfa1 plasmid) μ ([2]; isobutanol 3.0% w/v): 0.029 h⁻¹
- PN2001 (cfa1 plasmid) μ ([2]; isobutanol 3.2% w/v): 0.00 h⁻¹
- 2 h Δ OD ([6]; PN1312 (cfa1), S36 medium, 30° C, anaerobic): 0.5
- inhibited for growth ([6]; PN1312 (cfa1 overexpression)): 59%
- % Growth inhibition (L. plantarum PN2001; 2.25% isobutanol, MRS medium): 32%
- μ (2.25% isobutanol) (L. plantarum PN2001; [8]): 0.32 h⁻¹
- inhibition at 2.25 % strength [7]: 50%
- inhibition at 2.5 % strength [7]: 66%
- inhibition at 2.75 % strength [7]: 89%
- inhibition at 3 % strength [7]: 100%
- inhibition at 3.2 % strength [7]: 100%

— patent US8518678B2, “Strain comprising increased expression of a CFA coding region for butanol production” (Butamax(TM) Advanced Biofuels LLC, priority 2007, dated 2013)
